Results reported in article PMC4240912, “Multifaceted interplay between lipophilicity, protein interaction and luminescence parameters of non-intercalative ruthenium(II) polypyridyl complexes controlling cellular imaging and cytotoxic properties” (Journal of Biological Inorganic Chemistry, 2014).
Like-named read-outs stand apart in the source and are kept apart here.

Key:
[1] = aqueous solution, cited from earlier work
[2] = test system: murine endothelial cells isolated from aorta-gonad-mesonephros (AGM) region of 10.5 dpc embryos (MAgEC 10.5); test: Alamar Blue cell viability, MAgEC 10.5; type: cell-based; conditions: MAgEC 10.5, 24 h
Experimental: (§1) FVB mouse lung microvascular endothelial cells (MLuMEC FVB) and murine endothelial cells isolated from aorta-gonad-mesonephros (AGM) region of 10.5 dpc embryos (MAgEC 10.5) were cultured in OptiMEM with Glutamax-I (Gibco Invitrogen) supplemented with 2% fetal bovine serum (FBS), 0.4% gentamycin and 0.2% fungizone. […]
(§2) 10% FBS, 1% peniciline and streptomycin and 0.2% fungizone. Cells were routinely cultured at 37 °C in a humidified incubator in 5% CO2 atmosphere.
(§3) Cell viability was measured using Alamar Blue assay. Cells were seeded on 96 wells plate with density of 1 × 10^4 cells per cm2 and cultured for 1 day. Then cells were incubated with various concentrations of compounds in medium with or without 2% FBS for 24 and 48 h under normoxic and hypoxic conditions in the darkness. Next cells were washed with PBS and incubated in Alamar Blue solution for 3 h. The cell viability was quantified at 605 nm using 560 nm excitation light (VICTOR 3V multilabel plate reader PerkinElmer or Tecan Infinite200 Reader). Experiments were performed in triplicates and each experiment was performed at least three times to get the mean values ± standard derivation. The viability was calculated with regard to the untreated cells control. The IC50 values were determined using Hill equation (Origin 9.0). […]

[3] = test system: 4T1 breast cancer cell line; test: Alamar Blue cell viability, 4T1; type: cell-based; conditions: 4T1, 24 h incubation
Experimental: 4T1 breast cancer cell line was cultured in RPMI-1640 (Gibco Invitrogen) with 10 % fetal bovine serum (FBS, the bovine serum albumin is a major component), 1 % penicillin and streptomycin and 0.2 % fungizone. Cells were routinely cultured at 37 °C in a humidified incubator in 5 % CO2 atmosphere. Cell viability was measured using Alamar Blue assay. Cells were seeded on 96-well plate with density of 10^4 cells per cm^2 and cultured for 24 h in medium with or without 2 % serum. Then cells were incubated with various concentrations of ruthenium compounds for 24 h in the dark. All used ruthenium complexes were freshly diluted in DMSO and then added to the appropriate medium to obtain the applied concentrations. The final DMSO concentration was kept constant at 0.05 % (v/v). Next cells were washed with PBS and incubated in AlamarBlue solution (21 times diluted in PBS) for 3 h. Alamar Blue test is based on the reduction of blue and non-fluorescent subtract (resazurin) to a pink and highly fluorescent product (resorufin) by the alive cells. Extract mechanism of the reduction is still unknown, but it is postulated that reduction occurs by mitochondrial or cytoplasmic enzymes, such as NADH dehydrogenase or diaphorase. It is still not known whether this process occurs intracellularly, at the plasma membrane surface or just in the medium as a chemical reaction. The cell viability was quantified at 605 nm using 560 nm excitation light (VICTOR 3V multilabel plate readers, PerkinElmer). Experiments were performed in triplicates and each experiment was performed at least three times to get the mean values ± standard deviation. The viability was calculated with regard to the untreated cells control. The IC50 values were determined using Hill equation (Origin 9.0): y=y0+y100-y0c^H/IC50^H+c^H

[4] = test system: Human lung adenocarcinoma epithelial cell line (A549); test: Alamar Blue cell viability, A549; type: cell-based; conditions: A549, 24 h
Experimental: as §2, §3

[5] = test system: FVB mouse lung microvascular endothelial cells (MLuMEC FVB); test: Alamar Blue cell viability, MLuMEC; type: cell-based; conditions: 24 h
Experimental: as §1, §2, §3

Row | SMILES | Φ, quantum yield of luminescence (standard) ([1]; air-equilibrium conditions, ref [14]) | Φ, quantum yield of luminescence (standard) ([1]; deoxygenated conditions, ref [20]) | IC50 ([2]; with serum (2%)) [µM] | IC50 ([2]; without serum) [µM] | IC50 ([3]; medium with serum (2 %)) [µM] | IC50 ([3]; medium without serum) [µM] | IC50 ([4]; with serum (2%)) [µM] | IC50 ([4]; without serum) [µM] | IC50 ([5]; with serum (2%)) [µM] | IC50 ([5]; without serum) [µM]
1 | [Ru+2].c1ccc(-c2ccccn2)nc1.c1ccc(-c2ccccn2)nc1.c1ccc(-c2ccccn2)nc1 [[Ru(bpy)3]^2+, reference compound] | 0.028 | 0.042 | – | – | – | – | – | – | – | –
2 | N.N.[Cl][Pt][Cl] [Cisplatin, reference compound] | – | – | 8.75 ± 0.2 | 9.38 ± 0.67 | 59.8 ± 8.32 | 73 ± 14.9 | 71.3 ± 22.9 | 126 ± 30.5 | 14.5 ± 1.4 | 24.6 ± 2.89
